Experimental data reported in PubChem BioAssay AID330 (DTP/NCI, 2004).
Toxic doses and inconclusive results are not listed. The calls were made as follows: active = survival T/C of 150% or more; inactive = T/C below 125% in these data.

Test system: P388 leukemia ip, CD2F1 mice, survival T/C
Experiment: NCI In Vivo Anticancer Drug Screen. Data for tumor model P388 Leukemia (intraperitoneal) in CD2F1 (CDF1) mice
Conditions: endpoint: median survival time, higher = longer survival
Method in brief: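 Mice carrying the transplanted tumor received test compound or vehicle. Survival was recorded in each group, and the value is the treated-group measurement divided by that of the vehicle-treated control group.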

[1] = dose: 50.0 mg/kg/injection, schedule: Q01DX005 (ip), vehicle: saline with Tween-80
[2] = dose: 100.0 mg/kg/injection, schedule: Q01DX005 (ip), vehicle: saline with Tween-80
[3] = dose: 200.0 mg/kg/injection, schedule: Q01DX005 (ip), vehicle: saline with Tween-80
[4] = dose: 100.0 mg/kg/injection, schedule: Q01DX009 (ip), vehicle: saline
[5] = dose: 200.0 mg/kg/injection, schedule: Q01DX009 (ip), vehicle: saline

Measured: T/C

O=C1CSC(c2ccccc2O)N1c1nncs1 (stereo not drawn)
inactive: [1] 94 % of control | [2] 93 % of control | [3] 93 % of control

CCC(C)C(NC=O)C(=O)O (stereo not drawn)
inactive: [1] 93 % of control | [2] 100 % of control | [3] 100 % of control

CC(C)(CCC(C)(C)NCCCN)NCCCN
inactive: dose: 3.13 mg/kg/injection, schedule: Q01DX009 (ip), vehicle: water 115 % of control | dose: 6.25 mg/kg/injection, schedule: Q01DX009 (ip), vehicle: water 112 % of control | dose: 12.5 mg/kg/injection, schedule: Q01DX009 (ip), vehicle: water 102 % of control | dose: 25.0 mg/kg/injection, schedule: Q01DX009 (ip), vehicle: water 103 % of control | dose: 50.0 mg/kg/injection, schedule: Q01DX009 (ip), vehicle: water 97 % of control

CC[C@@H](O)[C@H](CC[Se]c1ccccc1)C(=O)[C@H](O)C1CCCCC1
inactive: dose: 60.0 mg/kg/injection, schedule: Q01DX005 (ip), vehicle: saline with Tween-80 107 % of control | dose: 120.0 mg/kg/injection, schedule: Q01DX005 (ip), vehicle: saline with Tween-80 105 % of control | dose: 240.0 mg/kg/injection, schedule: Q01DX005 (ip), vehicle: saline with Tween-80 108 % of control

CC(C)(C)OC(=O)NC(Cc1ccc(OCc2ccccc2)cc1)C(=O)ON1C(=O)CCC1=O (stereo not drawn)
inactive: dose: 50.0 mg/kg/injection, schedule: Q01DX005 (ip), vehicle: Klucel (hydroxypropylcellulose) (HPC) 93 % of control | dose: 100.0 mg/kg/injection, schedule: Q01DX005 (ip), vehicle: Klucel (hydroxypropylcellulose) (HPC) 88 % of control | dose: 200.0 mg/kg/injection, schedule: Q01DX005 (ip), vehicle: Klucel (hydroxypropylcellulose) (HPC) 100 % of control

Cn1nnc(-c2nnnn2N)n1
inactive: dose: 50.0 mg/kg/injection, schedule: Q01DX009 (ip), vehicle: saline 95 % of control | [4] 94 % of control | [5] 94 % of control

CC(Br)C(=O)Nc1ncc([N+](=O)[O-])s1 (stereo not drawn)
inactive: [4] 95 % of control | [5] 100 % of control

CC(=O)OCC1OC(n2nc(/C=C/c3ccccc3)c(=O)n(-c3ccccc3)c2=S)C(OC(C)=O)C(OC(C)=O)C1OC(C)=O (stereo not drawn)
inactive: dose: 100.0 mg/kg/injection, schedule: Q04DX003 (ip), vehicle: saline with Tween-80 103 % of control | dose: 200.0 mg/kg/injection, schedule: Q04DX003 (ip), vehicle: saline with Tween-80 101 % of control | dose: 400.0 mg/kg/injection, schedule: Q04DX003 (ip), vehicle: saline with Tween-80 110 % of control

CC(=NC(C)(C)C)N1CCCC1
inactive: dose: 12.5 mg/kg/injection, schedule: Q01DX005 (ip), vehicle: saline 102 % of control | dose: 25.0 mg/kg/injection, schedule: Q01DX005 (ip), vehicle: saline 102 % of control | dose: 50.0 mg/kg/injection, schedule: Q01DX005 (ip), vehicle: saline 101 % of control | dose: 100.0 mg/kg/injection, schedule: Q01DX005 (ip), vehicle: saline 95 % of control

CC(C)[CH2][Sn]1([CH2]C(C)C)[O]CCNCC[O]1
inactive: dose: 0.78 mg/kg/injection, schedule: Q01DX009 (ip), vehicle: saline 105 % of control | dose: 1.56 mg/kg/injection, schedule: Q01DX009 (ip), vehicle: saline 109 % of control | dose: 3.12 mg/kg/injection, schedule: Q01DX009 (ip), vehicle: saline 88 % of control

O=C1CC2CCC(CN2C(=O)OCc2ccccc2)O1 (stereo not drawn)
inactive: dose: 60.0 mg/kg/injection, schedule: Q01DX005 (ip), vehicle: Klucel (hydroxypropylcellulose) (HPC) 102 % of control | dose: 120.0 mg/kg/injection, schedule: Q01DX005 (ip), vehicle: Klucel (hydroxypropylcellulose) (HPC) 99 % of control | dose: 240.0 mg/kg/injection, schedule: Q01DX005 (ip), vehicle: Klucel (hydroxypropylcellulose) (HPC) 100 % of control

c1ccc2c(c1)cnc1c3ccccc3nn21
inactive: dose: 50.0 mg/kg/injection, schedule: Q01DX009 (ip), vehicle: Klucel (hydroxypropylcellulose) (HPC) 102 % of control | dose: 100.0 mg/kg/injection, schedule: Q01DX009 (ip), vehicle: Klucel (hydroxypropylcellulose) (HPC) 96 % of control | dose: 200.0 mg/kg/injection, schedule: Q01DX009 (ip), vehicle: Klucel (hydroxypropylcellulose) (HPC) 103 % of control

N#Cc1c2c(c(=S)n(-c3ccc(Cl)cc3)c1N)CCCC2
inactive: dose: 60.0 mg/kg/injection, schedule: Q01DX005 (ip), vehicle: Klucel + Tween-80 92 % of control | dose: 120.0 mg/kg/injection, schedule: Q01DX005 (ip), vehicle: Klucel + Tween-80 91 % of control | dose: 240.0 mg/kg/injection, schedule: Q01DX005 (ip), vehicle: Klucel + Tween-80 91 % of control

CCCCCCC(=O)/C=C/c1ccc(OCc2ccccc2)c(OCc2ccccc2)c1
inactive: dose: 6.25 mg/kg/injection, schedule: Q01DX005 (ip), vehicle: saline with Tween-80 92 % of control | dose: 12.5 mg/kg/injection, schedule: Q01DX005 (ip), vehicle: saline with Tween-80 92 % of control
